Measurements reported in patent US11155560B2, “Substituted pyrazolo[1,5-a]pyrimidines for modulating CDK9 activity” (Kronos Bio, Inc., priority 2018, dated 2021).

Biological target: T1, CDK9/cyclin T1 (Homo sapiens, UniProt P50750)
Assay: CDK9/cyclin T1 inhibition, radiometric assay
Type: biochemical
Details: radiometric assay, reaction time 60 minutes, 10 μM ATP, 10-dose IC50; compounds 1-34 and control Staurosporine; read-out: CDK9/cyclin T1 Potency Grade
Method: Exemplary compounds of the invention (1-34) were tested for inhibition of CDK9/cyclin T1. […] Reactions were carried out at 10 μM ATP. Data was normalized to positive and negative controls and curve fits were executed with GraphPad software and were performed where the enzyme activities at the highest concentration of compounds were less than 65%.

T1 sequence (P50750 whole entry): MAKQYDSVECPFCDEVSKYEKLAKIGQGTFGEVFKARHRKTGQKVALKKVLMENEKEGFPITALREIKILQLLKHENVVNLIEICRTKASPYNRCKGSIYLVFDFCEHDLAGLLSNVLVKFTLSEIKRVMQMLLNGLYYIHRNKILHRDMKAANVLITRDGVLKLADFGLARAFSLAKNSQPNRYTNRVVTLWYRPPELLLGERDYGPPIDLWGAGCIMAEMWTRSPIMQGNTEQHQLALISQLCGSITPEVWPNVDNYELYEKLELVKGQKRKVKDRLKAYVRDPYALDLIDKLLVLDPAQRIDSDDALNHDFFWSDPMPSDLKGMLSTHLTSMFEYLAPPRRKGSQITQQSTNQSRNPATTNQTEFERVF
T1 sequence (O60563 whole entry partner): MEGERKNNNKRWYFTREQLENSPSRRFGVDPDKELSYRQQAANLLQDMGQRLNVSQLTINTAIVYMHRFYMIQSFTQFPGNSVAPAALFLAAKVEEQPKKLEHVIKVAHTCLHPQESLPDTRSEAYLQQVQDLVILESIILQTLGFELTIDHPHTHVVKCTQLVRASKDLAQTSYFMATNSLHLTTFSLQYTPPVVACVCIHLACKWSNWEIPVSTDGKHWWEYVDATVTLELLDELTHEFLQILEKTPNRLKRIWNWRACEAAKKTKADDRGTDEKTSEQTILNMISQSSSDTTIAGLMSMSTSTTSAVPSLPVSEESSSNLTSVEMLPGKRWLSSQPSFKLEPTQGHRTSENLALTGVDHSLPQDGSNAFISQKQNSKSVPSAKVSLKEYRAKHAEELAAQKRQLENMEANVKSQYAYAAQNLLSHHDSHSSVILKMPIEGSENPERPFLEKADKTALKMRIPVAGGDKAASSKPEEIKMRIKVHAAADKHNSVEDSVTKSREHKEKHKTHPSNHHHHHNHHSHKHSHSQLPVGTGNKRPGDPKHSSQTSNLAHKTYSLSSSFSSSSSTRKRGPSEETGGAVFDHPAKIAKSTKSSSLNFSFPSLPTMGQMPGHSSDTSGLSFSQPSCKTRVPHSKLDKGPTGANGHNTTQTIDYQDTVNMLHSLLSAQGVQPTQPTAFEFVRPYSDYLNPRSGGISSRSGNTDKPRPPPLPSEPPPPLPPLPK

| Structure (SMILES) | IC50 [nM] |
| --- | --- |
| N[C@@H]1CC[C@@H](Nc2cc(C3CC3)nc3ccnn23)C1 [Compound 32, [(1R,3R)-3-[(5-cycloproylpyrazolo[1,5-a]pyrimidin-7-yl)amino]cyclopentyl]ammonium; 2,2,2-trifluoroacetate] | 1 to 500 |

Same assay, conditions: read-out: CDK9/cyclin T1 Potency Grade

| IC50 [nM] | Structure (SMILES) |
| --- | --- |
| > 1000 | Cc1cc(NC2CCCC2)n2nccc2n1 [Compound 1, N-cyclopentyl-5-methyl-pyrazolo[1,5-a]pyrimidin-7-amine] |
| 1 to 500 | CC(C)c1cc(NC2CCCC2)n2nccc2n1 [Compound 2, N-cyclopentyl-5-isopropyl-pyrazolo[1,5-a]pyrimidin-7-amine] |
| 1 to 500 | CCC(C)c1cc(NC2CCCC2)n2nccc2n1 (stereo not drawn) [Compound 3, N-cyclopentyl-5-sec-butyl-pyrazolo[1,5-a]pyrimidin-7-amine] |
| 501 to 1000 | Cc1cc(N[C@H]2CC[C@H](N)CC2)n2nccc2n1 [Compound 4, [4-[(5-methylpyrazolo[1,5-a]pyrimidin-4-ium-7-yl)amino]cyclohexyl]ammonium dichloride] |
| 1 to 500 | c1cc2nc(C3CCCC3)cc(NC3CCCC3)n2n1 [Compound 5, N,5-dicyclopentylpyrazolo[1,5-a]pyrimidin-7-amine] |
| 1 to 500 | CCC(C)c1cc(N[C@H]2CC[C@H](N)CC2)n2nccc2n1 (stereo partly drawn) [Compound 7, [4-[(5-sec-butylpyrazolo[1,5-a]pyrimidin-4-ium-7-yl)amino]cyclohexyl]ammonium dichloride] |
| 1 to 500 | N[C@H]1CC[C@H](Nc2cc(C3CCCC3)nc3ccnn23)CC1 [Compound 8, [4-[(5-cyclopentylpyrazolo[1,5-a]pyrimidin-4-ium-7-yl)amino]cyclohexyl]ammonium dichloride] |
| 1 to 500 | N[C@H]1CC[C@H](Nc2cc(C3CCCC3)nc3ccnn23)C1 [Compound 9, [(1S,3S)-3-[(5-cyclopentylpyrazolo[1,5-a]pyrimidin-4-ium-7-yl)amino]cyclopentyl]ammonium dichloride] |
| > 1000 | Cc1cc(N[C@@H]2CC[C@H](N)C2)n2nccc2n1 [Compound 10, [(1S,3R)-3-[(5-methylpyrazolo[1,5-a]pyrimidin-4-ium-7-yl)amino]cyclopentyl]ammonium dichloride] |
| 501 to 1000 | Cc1cc(N[C@H]2C[C@H](N)C2)n2nccc2n1 [Compound 11, [3-[(5-methylpyrazolo[1,5-a]pyrimidin-4-ium-7-yl)amino]cyclobutyl]ammonium dichloride] |
| 501 to 1000 | Cc1cc(N[C@H]2CC[C@@H](N)C2)n2nccc2n1 [Compound 12, [(1R,3S)-3-[(5-methylpyrazolo[1,5-a]pyrimidin-4-ium-7-yl)amino]cyclopentyl]ammonium dichloride] |
| 1 to 500 | N[C@H]1CC[C@@H](Nc2cc(C3CCCC3)nc3ccnn23)C1 [Compound 15, (1 S,3R)—N3-(5-cyclopentylpyrazolo[1,5-a]pyrimidin-7-yl)cyclopentane-1,3-diamine] |
| 1 to 500 | CCC(C)c1cc(N[C@H]2C[C@H](N)C2)n2nccc2n1 (stereo partly drawn) [Compound 19, N1-(5-sec-butylpyrazolo[1,5-a]pyrimidin-7-yl)cyclobutane-1,3-diamine] |
| 1 to 500 | N[C@H]1C[C@H](Nc2cc(C3CCCC3)nc3ccnn23)C1 [Compound 20, N1-(5-cyclopentylpyrazolo[1,5-a]pyrimidin-7-yl)cyclobutane-1,3-diamine] |
| 1 to 500 | N[C@@H]1CC[C@H](Nc2cc(C3CCCC3)nc3ccnn23)C1 [Compound 23, (1R,3S)—N3-(5-cyclopentylpyrazolo[1,5-a]pyrimidin-7-yl)cyclopentane-1,3-diamine] |
| 501 to 1000 | Cc1cc(N[C@H]2CC[C@H](N)C2)n2nccc2n1 [Compound 24, (1S,3S)—N3-(5-methylpyrazolo[1,5-a]pyrimidin-7-yl)cyclopentane-1,3-diamine] |
| 501 to 1000 | CCc1cc(N[C@@H]2CC[C@@H](N)C2)n2nccc2n1 [Compound 25, (1R,3R)—N3-(5-ethylpyrazolo[1,5-a]pyrimidin-7-yl)cyclopentane-1,3-diamine] |
| 1 to 500 | CCc1cc(N[C@H]2CC[C@H](N)C2)n2nccc2n1 [Compound 28, (1S,3S)-N3-(5-ethylpyrazolo[1,5-a]pyrimidin-7-yl)cyclopentane-1,3-diamine] |
| 1 to 500 | CC(C)c1cc(NC2CCCCC2)n2nccc2n1 [Compound 29, N-cyclohexyl-5-isopropyl-pyrazolo[1,5-a]pyrimidin-7-amine] |
| > 1000 | CC(C)c1cc(N[C@@H]2CCOC2)n2nccc2n1 [Compound 30, 5-isopropyl-N-[(3R)-tetrahydrofuran-3-yl]pyrazolo[1,5-a]pyrimidin-7-amine] |
| 1 to 500 | CC(=O)Nc1cc(N[C@@H]2CC[C@@H](N)C2)n2ncc(Cl)c2n1 [Compound 33, [(1R,3R)-3-[(5-acetamido-3-chloro-pyrazolo[1,5-a]pyrimidin-7-yl)amino]cyclopentyl]ammonium; 2,2,2-trifluoroacetate] |
| > 1000 | CC(=O)Nc1cc(N[C@@H]2CC[C@@H](N)C2)n2nccc2n1 [Compound 34, [(1R,3R)-3-[(5-acetamidopyrazolo[1,5-a]pyrimidin-7-yl)amino]cyclopentyl]ammonium; 2,2,2-trifluoroacetate] |

Biological target: T1, CDK9/cyclin T1
Assay: CDK9/cyclin T1 kinase inhibition, LANCE assay
Type: biochemical
Details: reaction time 60 minutes, 10 μM ATP, 10-dose IC50, compounds 35-126 (127-208 listed, method not stated), read-out: CDK9/cyclin T1 Potency Grade
Method: Exemplary compounds of the invention (35-126) were tested for inhibition of CDK9/cyclin T1 kinase. Using a LANCE assay (reaction time 60 minutes), the compounds were tested in 10-dose IC50 duplicate mode with a 3-fold serial dilution starting at 4.3 μM. […] Reactions were carried out at 10 μM ATP. Data was normalized to positive and negative controls and curve fits were analyzed with XLFIT5 as % inhibition vs. log [compound concentration] using a 4-parameter logistic model205. Fit=(A+((B−A)/(1+((C/x)^D)))); Res =(y-fit).

| Structure (SMILES) | IC50 [nM] |
| --- | --- |
| N[C@H]1CC[C@H](Nc2cc(-c3ccc4ccccc4c3)nc3ccnn23)C1 [Compound 160] | 501 to 1000 |
| COc1cc(C)cc(-c2cc(N[C@H]3CC[C@H](N)C3)n3nccc3n2)c1 [Compound 161] | 1 to 500 |
| N[C@H]1CC[C@H](Nc2cc(Nc3ccc4ccccc4c3)nc3ccnn23)C1 [Compound 162] | 1 to 500 |
| N[C@H]1CC[C@H](Nc2cc(N3CCOCC3)nc3ccnn23)C1 [Compound 163] | 1 to 500 |
| Cc1cccc(-c2cc(N[C@H]3CC[C@H](N)C3)n3nccc3n2)c1 [Compound 164] | 1 to 500 |
| COc1cc(Cl)cc(-c2cc(N[C@H]3CC[C@H](N)C3)n3nccc3n2)c1 [Compound 165] | 1 to 500 |
| N[C@H]1CC[C@H](Nc2cc(-c3cccc(Cl)c3)nc3ccnn23)C1 [Compound 166] | 1 to 500 |

Further lines, results first:

| IC50 [nM] | Structure (SMILES) |
| --- | --- |
| 501 to 1000 | COc1cc(N[C@@H]2CC[C@@H](N)C2)n2nccc2n1 [Compound 168] |
| 501 to 1000 | Cn1cncc1-c1cc(N[C@H]2CC[C@H](NC=O)C2)n2nccc2n1 [Compound 169] |
| 1 to 500 | CCN(CC)c1cc(N[C@H]2CC[C@H](N)C2)n2nccc2n1 [Compound 170] |
| 1 to 500 | N[C@H]1CC[C@H](Nc2cc(Nc3cccc4ccccc34)nc3ccnn23)C1 [Compound 171] |
| 1 to 500 | N[C@H]1CC[C@H](Nc2cc(-c3cccc4ccccc34)nc3ccnn23)C1 [Compound 172] |
| 1 to 500 | N[C@H]1CC[C@H](Nc2cc(-c3cc(Cl)cc(Cl)c3)nc3ccnn23)C1 [Compound 173] |
| 1 to 500 | Cn1cncc1-c1cc(N[C@H]2CC[C@H](N)C2)n2nccc2n1 [Compound 174] |
| > 1000 | O=C(N[C@H]1CC[C@H](Nc2cc(C3CC3)nc3ccnn23)C1)OCc1ccccc1 [Compound 175] |
| 1 to 500 | Cc1cnn2c(N[C@@H]3CC[C@@H](NC(=O)OC(C)C)C3)cc(C(C)C)nc12 [Compound 176] |
| 1 to 500 | CC(C)N(C)c1cc(N[C@H]2CC[C@H](N)C2)n2nccc2n1 [Compound 177] |
| 1 to 500 | Cc1cnn2c(N[C@@H]3CC[C@@H](NC(=O)OCc4ccccc4)C3)cc(C(C)C)nc12 [Compound 178] |
| 501 to 1000 | COCCNc1cc(N[C@H]2CC[C@H](N)C2)n2nccc2n1 [Compound 179] |
| > 1000 | COC(=O)N[C@H]1CC[C@H](Nc2cc(C3CC3)nc3ccnn23)C1 [Compound 180] |
| 1 to 500 | CN(CCO)c1cc(N[C@H]2CC[C@H](N)C2)n2nccc2n1 [Compound 181] |
| 501 to 1000 | CCOc1cc(N[C@H]2CC[C@H](N)C2)n2nccc2n1 [Compound 182] |
| > 1000 | CC(C)c1cc(N[C@H]2CC[C@H](N)C2)n2nc(N)cc2n1 [Compound 183] |
| 1 to 500 | Cc1cnn2c(N[C@H]3CC[C@H](N)C3)cc(CC(C)C)nc12 [Compound 184] |
| 1 to 500 | CN(Cc1ccccc1)c1cc(N[C@H]2CC[C@H](N)C2)n2nccc2n1 [Compound 188] |
| 1 to 500 | CCNc1cc(N[C@H]2CC[C@H](N)C2)n2nccc2n1 [Compound 189] |
| 1 to 500 | N[C@H]1CC[C@H](Nc2cc(-c3ccc4c(c3)OCO4)nc3c(Cl)cnn23)C1 [Compound 195] |
| 1 to 500 | Cc1cc(C)cc(-c2cc(N[C@H]3CC[C@H](N)C3)n3nccc3n2)c1 [Compound 196] |
| 1 to 500 | CC(C)c1ccc(-c2cc(N[C@H]3CC[C@H](N)C3)n3nccc3n2)cc1 [Compound 199] |
| 1 to 500 | N[C@H]1CC[C@H](Nc2cc(C3=CCCCC3)nc3ccnn23)C1 [Compound 200] |
| 1 to 500 | CC(C)(C#N)c1ccc(-c2cc(N[C@H]3CC[C@H](N)C3)n3nccc3n2)cc1 [Compound 204] |
| 1 to 500 | N[C@H]1CC[C@H](Nc2cc(-c3ccc(C4CC4)cc3)nc3ccnn23)C1 [Compound 205] |
| 1 to 500 | N[C@H]1CC[C@H](Nc2cc(C3CCCCC3)nc3ccnn23)C1 [Compound 206] |
| 1 to 500 | CC1(C)CC1c1cc(N[C@H]2CC[C@H](N)C2)n2nccc2n1 (stereo partly drawn) [Compound 208] |
